Reference: patent US6706721B1, “N-(3-ethynylphenylamino)-6,7-bis(2-methoxyethoxy)-4-quinazolinamine mesylate anhydrate and monohydrate” (OSI Pharmaceuticals, Inc., priority 1998, dated 2004)

Legend:
[1] = resistance to thermal degradation; assay type: physicochemical
[2] = hygroscopicity; assay type: physicochemical

thermal degradation [1]: resistance to thermal degradation | hygroscopicity [2]: essentially non-hygroscopic
Structure (SMILES): C#Cc1cccc(Nc2ncnc3cc(OCCOC)c(OCCOC)cc23)c1.CS(=O)(=O)O [Polymorph C, N-(3-ethynylphenyl)-6,7-bis(2-methoxyethoxy)-4-quinazolinamine Mesylate Salt]
